Results as given in publication PMC4142213 (Nature, 2014).

System: DIO mice
Assay: OGTT with co-administration of 6bK and sitagliptin
Format: in vivo, mouse
Details: OGTT 3.0 g kg^-1, sitagliptin 4 mg kg^-1 oral, 6bK 40 mg kg^-1

With `N[C@@H](CC(=O)N1CCn2c(nnc2C(F)(F)F)C1)Cc1cc(F)c(F)cc1F` [sitagliptin] as the molecule, how does the “reduction of blood glucose profile area compared to vehicle” value read?
Its value is 60–64%.
